Data taken from patent US9981916B2 (Genentech, Inc., priority 2013, dated 2018).

Target: T1, RORc ligand binding domain (Homo sapiens, UniProt P51449)
T1 construct: host or cells: E. coli
T1 sequence (P51449 269-508 limits assumed): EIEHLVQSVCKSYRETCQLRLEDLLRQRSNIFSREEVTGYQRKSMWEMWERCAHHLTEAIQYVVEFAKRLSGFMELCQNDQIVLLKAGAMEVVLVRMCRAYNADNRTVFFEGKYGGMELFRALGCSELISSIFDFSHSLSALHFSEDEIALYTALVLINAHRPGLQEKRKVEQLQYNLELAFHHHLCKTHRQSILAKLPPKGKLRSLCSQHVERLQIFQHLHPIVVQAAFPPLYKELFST
Assay: In vitro RORc ligand binding assay (25-[3H]hydroxycholesterol displacement, filter binding)
Conditions: 6 nM 25-[3H]hydroxycholesterol, 0.6 ug/mL RORc receptor, 3 h at 25° C.
Procedure, shortened: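 Compounds in 5% DMSO, either dose-response or screened at 1 and 10 uM, competed with 6 nM 25-[3H]hydroxycholesterol for 0.6 ug/mL RORc over 3 h at 25° C (HEPES pH 7.4, NaCl, MgCl2, DTT, BSA buffer). Bound tracer was filter-harvested and counted; nonspecific binding came from 1 uM 25-hydroxycholesterol.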

Row | Structure (SMILES) | IC50 [nM]
1 | CN1CCN(C[C@]23CC[C@H](c4cc(-c5ccccc5F)nnc42)C3(C)C)C1=O [Example 46, 1-{[(5S,8R)-3-(2-fluorophenyl)-9,9-dimethyl-6,7-dihydro-5,8-methanocinnolin-8(5H)-yl]methyl}-3-methylimidazolidin-2-one] | 1450
2 | CC1(C)[C@H]2CC[C@]1(C(=O)N1CCC1)c1nnc(-c3c(F)cccc3F)cc12 [Example 141, azetidin-1-yl((5R,8R)-3-(2,6-difluorophenyl)-9,9-dimethyl-5,6,7,8-tetrahydro-5,8-methanocinnolin-8-yl)methanone] | 608
3 | Cc1nnc([C@@]23CC[C@@H](c4cc(-c5c(F)cccc5F)nnc42)C3(C)C)o1 [Example 67, (5R,8R)-3-(2,6-difluorophenyl)-9,9-dimethyl-8-(5-methyl-1,3,4-oxadiazol-2-yl)-5,6,7,8-tetrahydro-5,8-methanocinnoline] | 31
4 | CC1(C)[C@H]2CC[C@]1(C(=O)N1CCc3cc(S(C)(=O)=O)ccc31)c1nnc(-c3ccccc3F)cc12 (stereo in doubt) [Example 170, ((5R,8R)-3-(2-fluorophenyl)-9,9-dimethyl-5,6,7,8-tetrahydro-5,8-methanocinnolin-8-yl)(5-(methylsulfonyl)indolin-1-yl)methanone] | 3890
5 | CC1(C)[C@H]2CC[C@]1(Cc1ncon1)c1nnc(-c3c(F)cccc3F)cc12 [Example 57, (5R,8R)-3-(2,6-difluorophenyl)-9,9-dimethyl-8-(1,2,4-oxadiazol-3-ylmethyl)-5,6,7,8-tetrahydro-5,8-methanocinnoline] | 85
6 | CC(C)OC[C@]12CC[C@H](c3cc(-c4ccccc4F)nnc31)C2(C)C [Example 38, (5S,8S)-3-(2-fluorophenyl)-9,9-dimethyl-8-[(propan-2-yloxy)methyl]-5,6,7,8-tetrahydro-5,8-methanocinnoline] | 281
7 | CC1(C)[C@H]2CC[C@]1(c1nnc(C(F)F)o1)c1nnc(-c3c(F)cccc3F)cc12 [Example 138, 2-(difluoromethyl)-5-((5R,8R)-3-(2,6-difluorophenyl)-9,9-dimethyl-5,6,7,8-tetrahydro-5,8-methanocinnolin-8-yl)-1,3,4-oxadiazole] | 170
8 | Cc1nnc([C@]23CC[C@H](c4cc(-c5c(F)cccc5F)nnc42)C3(C)C)o1 [Example 103, (5S,8S)-3-(2,6-difluorophenyl)-9,9-dimethyl-8-(5-methyl-1,3,4-oxadiazol-2-yl)-5,6,7,8-tetrahydro-5,8-methanocinnoline] | 205
9 | CC1(C)[C@H]2CC[C@]1(C(=O)N1CC(F)(F)C1)c1nnc(-c3c(F)cccc3F)cc12 [Example 135, (3,3-difluoroazetidin-1-yl)((5R,8R)-3-(2,6-difluorophenyl)-9,9-dimethyl-5,6,7,8-tetrahydro-5,8-methanocinnolin-8-yl)methanone] | 643
10 | COCC1CN(C(=O)[C@]23CC[C@H](c4cc(-c5c(F)cccc5F)nnc42)C3(C)C)C1 [Example 140, ((5S,8S)-3-(2,6-difluorophenyl)-9,9-dimethyl-5,6,7,8-tetrahydro-5,8-methanocinnolin-8-yl)(3-(methoxymethyl)azetidin-1-yl)methanone] | 19
11 | CC1(C)[C@H]2CC[C@]1(C)c1nnc(-c3c(F)cccc3F)cc12 [Example 1, (5R,8S)-3-(2,6-Difluorophenyl)-8,9,9-trimethyl-5,6,7,8-tetrahydro-5,8-methanocinnoline] | 114
12 | CCc1nnc([C@@]23CC[C@@H](c4cc(-c5c(F)cccc5F)nnc42)C3(C)C)s1 [Example 124, (5R,8R)-3-(2,6-difluorophenyl)-9,9-dimethyl-8-(5-ethyl-1,3,4-thiadiazol-2-yl)-5,6,7,8-tetrahydro-5,8-methanocinnoline] | 117
13 | CC1(C)[C@H]2CC[C@]1(C(=O)NC1CCCC1)c1nnc(-c3ccccc3F)cc12 [Example 175, (5R,8R)-N-cyclopentyl-3-(2-fluorophenyl)-9,9-dimethyl-5,6,7,8-tetrahydro-5,8-methanocinnoline-8-carboxamide] | 1160
14 | CC1(C)[C@@H]2CC[C@@]1(C(=O)NCC1CC1)c1nnc(-c3ccccc3F)cc12 [Example 132, (5S,8S)-N-(cyclopropylmethyl)-3-(2-fluorophenyl)-9,9-dimethyl-5,6,7,8-tetrahydro-5,8-methanocinnoline-8-carboxamide] | 707
15 | CNC(=O)N(C)C[C@]12CC[C@H](c3cc(-c4ccccc4F)nnc31)C2(C)C [Example 43, 1-{[(5S,8R)-3-(2-fluorophenyl)-9,9-dimethyl-6,7-dihydro-5,8-methanocinnolin-8(5H)-yl]methyl}-1,3-dimethylurea] | 624

Next, values leading:

Row | IC50 [nM] | Structure (SMILES)
16 | 146 | Cn1nccc1[C@@]12CC[C@@H](c3cc(-c4c(F)cccc4F)nnc31)C2(C)C [Example 275, (5R,8S)-3-(2,6-difluorophenyl)-9,9-dimethyl-8-(1-methyl-1H-pyrazol-5-yl)-5,6,7,8-tetrahydro-5,8-methanocinnoline]
17 | 338 | CC1(C)[C@@H]2CC[C@@]1(I)c1nnc(-c3ccccc3F)cc12 [Example 200, (5R,8S)-3-(2-fluorophenyl)-8-iodo-9,9-dimethyl-5,6,7,8-tetrahydro-5,8-methanocinnoline]
18 | 5 | CCOC(=O)N(CC)C[C@@]12CC[C@@H](c3cc(-c4c(F)cccc4F)nnc31)C2(C)C [Example 277, ethyl (((5R,8S)-3-(2,6-difluorophenyl)-9,9-dimethyl-5,6,7,8-tetrahydro-5,8-methanocinnolin-8-yl)methyl)(ethyl) carbamate]
19 | 2810 | Cc1c[nH]nc1C1CN(C(=O)[C@@]23CC[C@@H](c4cc(-c5ccccc5F)nnc42)C3(C)C)C1 [Example 179, ((5R,8R)-3-(2-fluorophenyl)-9,9-dimethyl-5,6,7,8-tetrahydro-5,8-methanocinnolin-8-yl)(3-(4-methyl-1H-pyrazol-3-yl)azetidin-1-yl)methanone]
20 | 528 | CC1(C)[C@@H]2CC[C@@]1(C(=O)NCC(F)F)c1nnc(-c3c(F)cccc3F)cc12 [Example 210, (5S,8S)-N-(2,2-difluoroethyl)-3-(2,6-difluorophenyl)-9,9-dimethyl-5,6,7,8-tetrahydro-5,8-methanocinnoline-8-carboxamide]
21 | 819 | CC1(C)[C@@H]2CC[C@@]1(C(=O)N1CC(CO)C1)c1nnc(-c3c(F)cccc3F)cc12 [Example 233, ((5S,8S)-3-(2,6-difluorophenyl)-9,9-dimethyl-5,6,7,8-tetrahydro-5,8-methanocinnolin-8-yl)(3-(hydroxymethyl)azetidin-1-yl)methanone]
22 | 423 | CC1(C)[C@H]2CC[C@]1(c1ccnn1CCO)c1nnc(-c3c(F)cccc3F)cc12 [Example 269, 2-(5-((5R,8S)-3-(2,6-difluorophenyl)-9,9-dimethyl-5,6,7,8-tetrahydro-5,8-methanocinnolin-8-yl)-1H-pyrazol-1-yl)ethanol]
23 | 339 | COCCn1nccc1[C@@]12CC[C@@H](c3cc(-c4c(F)cccc4F)nnc31)C2(C)C [Example 267, (5R,8S)-3-(2,6-difluorophenyl)-8-(1-(2-methoxyethyl)-1H-pyrazol-5-yl)-9,9-dimethyl-5,6,7,8-tetrahydro-5,8-methanocinnoline]
24 | 218 | CN(C(=O)OC(C)(C)C)[C@@]12CC[C@@H](c3cc(-c4c(F)cccc4F)nnc31)C2(C)C [Example 281, tert-butyl ((5R,8R)-3-(2,6-difluorophenyl)-9,9-dimethyl-5,6,7,8-tetrahydro-5,8-methanocinnolin-8-yl)(methyl)carbamate]
25 | 405 | CC1(C)[C@@H]2CC[C@@]1(C(=O)N1CC[C@@H](C#N)C1)c1nnc(-c3c(F)cccc3F)cc12 [Example 236, (R)-1-((5S,8S)-3-(2,6-difluorophenyl)-9,9-dimethyl-5,6,7,8-tetrahydro-5,8-methanocinnoline-8-carbonyl)pyrrolidine-3-carbonitrile]
26 | 1480 | CN(C(=O)OCCO)[C@@]12CC[C@@H](c3cc(-c4c(F)cccc4F)nnc31)C2(C)C [Example 299, 2-hydroxyethyl ((5R,8R)-3-(2,6-difluorophenyl)-9,9-dimethyl-5,6,7,8-tetrahydro-5,8-methanocinnolin-8-yl)(methyl)carbamate]
27 | 3810 | CNC(=O)C1CN(C(=O)[C@@]23CC[C@@H](c4cc(-c5ccccc5F)nnc42)C3(C)C)CCO1 (stereo partly drawn) [Example 180, 4-((5R,8R)-3-(2-fluorophenyl)-9,9-dimethyl-5,6,7,8-tetrahydro-5,8-methanocinnoline-8-carbonyl)-N-methylmorpholine-2-carboxamide]
28 | 2330 | CC(C)(C)OC(=O)N[C@]12CC[C@H](c3cc(-c4c(F)cccc4F)nnc31)C2(C)C [Example 256, tert-butyl ((5S,8S)-3-(2,6-difluorophenyl)-9,9-dimethyl-5,6,7,8-tetrahydro-5,8-methanocinnolin-8-yl)carbamate]
29 | 56 | CCN(CC(N)=O)C[C@@]12CC[C@@H](c3cc(-c4c(F)cccc4F)nnc31)C2(C)C [Example 304, 2-((((5R,8S)-3-(2,6-difluorophenyl)-9,9-dimethyl-5,6,7,8-tetrahydro-5,8-methanocinnolin-8-yl)methyl)(ethyl)amino) acetamide]
30 | 2950 | CNC(=O)C1CCCN1C(=O)[C@]12CC[C@H](c3cc(-c4c(F)cccc4F)nnc31)C2(C)C (stereo partly drawn) [Example 243, 1-((5S,8S)-3-(2,6-difluorophenyl)-9,9-dimethyl-5,6,7,8-tetrahydro-5,8-methanocinnoline-8-carbonyl)-N-methylpyrrolidine-2-carboxamide]
